# Assay results: ChEMBL document CHEMBL2203134, “Discovery of XL888: a novel tropane-derived small molecule inhibitor of HSP90” (Bioorg Med Chem Lett, 2012)
# Activity calls are given as the source filed them. The rule behind the calls is not given here.
# Key:
# [1] = Apparent permeability across MDCK cells; format: ADME, cell-based, Canis lupus familiaris; settings: dog
# [2] = Clearance in iv dosed rat; format: ADME, organism-based; settings: in vivo
# Heat shock protein HSP90 [3] = target: T1, Heat shock protein HSP90 (Homo sapiens, UniProt P07900+P08238); assay: Displacement of biotinylated geldanamycin from human His-tagged Hsp90 by TR-FRET assay; format: protein assay
# Heat shock protein HSP90 [4] = target: T1, Heat shock protein HSP90; assay: Inhibition of Hsp90 in human A549 cells assessed as Raf1 degradation after 24 hrs by Western blot analysis; format: cell-based
# Mus musculus [5] = assay: Inhibition of Hsp90 in human COLO205 cells xenografted in mouse assessed as Raf1 degradation at 100 mg/kg administered QD for 2 days measured 8 hrs post-last dose; format: functional; settings: COLO 205
# Mus musculus [6] = assay: Inhibition of Hsp90 in human COLO205 cells xenografted in mouse assessed as Her2 degradation at 100 mg/kg administered QD for 2 days measured 8 hrs post-last dose; format: functional; settings: COLO 205
# [7] = Drug metabolism in human liver microsomes at 15 uM after 30 mins; format: ADME, Microsome; settings: read-out: Drug metabolism
# [8] = Oral bioavailability in rat; format: ADME, organism-based; settings: in vivo
# [9] = Half life in iv dosed rat; format: ADME, organism-based; settings: in vivo
# [10] = Kinetic solubility of the compound; format: physicochemical; settings: read-out: Kinetic_solubility
# Rattus norvegicus [11] = assay: Dose normalized AUC in iv dosed rat; format: ADME, organism-based; settings: in vivo
# [12] = Half life in rat at 5 mg/kg, iv; format: ADME, organism-based; design: dose 5 mg/kg, route intravenous; settings: in vivo
# [13] = Drug uptake in human NCI-N87 tumor xenografted in mouse at 100 mg/kg administered QD for 3 days measured at 24 hrs post-last dose; format: ADME, organism-based, Neoplasm; design: dose 100 mg/kg; settings: human NCI-N87 tumor xenograft, read-out: Drug uptake
# NCI-N87 [14] = assay: Antitumor activity against human NCI-N87 cells xenografted in mouse assessed as tumor growth inhibition at 60 mg/kg administered QD relative to control; format: functional; settings: read-out: TGI
# [15] = Drug uptake in human NCI-N87 tumor xenografted in mouse at 100 mg/kg administered QD for 3 days measured at 96 hrs post-last dose; format: ADME, organism-based, Neoplasm; design: dose 100 mg/kg; settings: human NCI-N87 tumor xenograft, read-out: Drug uptake
# Mus musculus [16] = assay: Inhibition of Hsp90 in human NCI-N87 cells xenografted in mouse assessed as Hsp70 upregulation at 100 mg/kg administered QD for 3 days measured at 8 hrs post-last dose relative to control; format: functional
# NCI-N87 [17] = assay: Antitumor activity against human NCI-N87 cells xenografted in mouse assessed as tumor growth inhibition at 100 mg/kg administered QD for 3 days in a week relative to control; format: functional; settings: NCI-N87, 72 h, read-out: TGI
# Mus musculus [18] = assay: Inhibition of Hsp90 in human NCI-N87 cells xenografted in mouse assessed as Her2 degradation at 100 mg/kg administered QD for 3 days measured at 8 hrs post-last dose relative to control; format: functional
# COLO 205 = assay: Antiproliferative activity against human COLO205 cells overexpressing Braf after 48 hrs by BrdU labeling assay; format: functional, cell-based; settings: COLO 205, 48 h
# Mus musculus [19] = assay: Inhibition of Hsp90 in human NCI-N87 cells xenografted in mouse assessed as Raf1 degradation at 100 mg/kg administered QD for 3 days measured at 8 hrs post-last dose relative to control; format: functional
# HN5 = assay: Antiproliferative activity against human HN5 cells overexpressing EGFR after 48 hrs by BrdU labeling assay; format: functional, cell-based; settings: HN5, 48 h
# SK-MEL-28 = assay: Antiproliferative activity against human SK-MEL-28 cells overexpressing Braf after 48 hrs by BrdU labeling assay; format: functional, cell-based; settings: SK-MEL-28, 48 h
# [20] = Plasma concentration in mouse xenografted with human NCI-N87 cells at 100 mg/kg administered QD for 3 days measured 8 hrs post-last dose; format: ADME, organism-based; design: dose 100 mg/kg
# Mus musculus [21] = assay: Inhibition of Hsp90 in human NCI-N87 cells xenografted in mouse assessed as Hsp70 upregulation at 100 mg/kg administered QD for 3 days measured at 96 hrs post-last dose relative to control; format: functional
# Plasma = assay: Plasma concentration in mouse xenografted with human NCI-N87 cells at 100 mg/kg administered QD for 3 days measured 96 hrs post-last dose; format: ADME, organism-based; design: dose 100 mg/kg; settings: in vivo, BLD = below limit of detection
# [22] = Drug uptake in human NCI-N87 tumor xenografted in mouse at 100 mg/kg administered QD for 3 days measured at 8 hrs post-last dose; format: ADME, organism-based, Neoplasm; design: dose 100 mg/kg; settings: human NCI-N87 tumor xenograft, read-out: Drug uptake
# MCF7 = assay: Antiproliferative activity against human MCF7 cells overexpressing PI3K after 48 hrs by BrdU labeling assay; format: functional, cell-based; settings: MCF7, 48 h
# Mus musculus [23] = assay: Inhibition of Hsp90 in human NCI-N87 cells xenografted in mouse assessed as Raf1 degradation at 100 mg/kg administered QD for 3 days measured after 8 hrs post-last dose relative to control; format: functional, organism-based; design: dose 100 mg/kg
# BT-474 = assay: Antiproliferative activity against human BT474 cells overexpressing Her2 after 48 hrs by BrdU labeling assay; format: functional, cell-based; settings: BT-474, 48 h
# NCI-H1975 = assay: Antiproliferative activity against human NCI-H1975 cells overexpressing EGFR after 48 hrs by BrdU labeling assay; format: functional, cell-based; settings: NCI-H1975, 48 h
# [24] = Plasma concentration in mouse xenografted with human NCI-N87 cells at 100 mg/kg administered QD for 3 days measured 24 hrs post-last dose; format: ADME, organism-based; design: dose 100 mg/kg
# Rattus norvegicus [25] = assay: Dose normalized AUC in rat at 5 mg/kg, iv; format: ADME, organism-based; design: dose 5 mg/kg, route intravenous; settings: in vivo
# Mus musculus [26] = assay: Inhibition of Hsp90 in human NCI-N87 cells xenografted in mouse assessed as Her2 degradation at 100 mg/kg administered QD for 3 days measured up to 48 hrs post-last dose relative to control; format: functional
# Heat shock protein HSP90 [27] = target: T1, Heat shock protein HSP90; assay: Inhibition of Hsp90 in human NCI-N87 cells assessed as Her2 degradation after 24 hrs by Western blot analysis; format: cell-based
# A549 = assay: Antiproliferative activity against human A549 cells overexpressing Kras after 48 hrs by BrdU labeling assay; format: functional, cell-based; settings: A549, 48 h
# NCI-N87 [28] = assay: Antiproliferative activity against human NCI-N87 cells overexpressing Her2 after 48 hrs by BrdU labeling assay; format: functional, cell-based; settings: NCI-N87, 48 h
# MKN-45 = assay: Antiproliferative activity against human MKN45 cells overexpressing MET after 48 hrs by BrdU labeling assay; format: functional, cell-based; settings: MKN-45, 48 h
# [29] = Oral bioavailability in rat at 5 mg/kg; format: ADME, organism-based; settings: in vivo
# [30] = Clearance in rat at 5 mg/kg, iv; format: ADME, organism-based; design: dose 5 mg/kg, route intravenous; settings: in vivo
# NCI-N87 [31] = assay: Antitumor activity against human NCI-N87 cells xenografted in mouse assessed as tumor regression at 100 mg/kg administered QD for 3 days in a week relative to control; format: functional
# MDA-MB-453 = assay: Antiproliferative activity against human MDA-MB-453 cells overexpressing Her2 after 48 hrs by BrdU labeling assay; format: functional, cell-based; settings: MDA-MB-453, 48 h
# [32] = Drug metabolism in mouse liver microsomes at 15 uM after 30 mins; format: ADME, Microsome; settings: read-out: Drug metabolism
# [33] = Drug uptake in human COLO205 tumor xenografted in mouse at 100 mg/kg administered QD for 2 days measured 8 hrs post-last dose; format: ADME, organism-based, Neoplasm; design: dose 100 mg/kg; settings: human COLO205 tumor xenograft, read-out: Drug uptake
# Rattus norvegicus [34] = assay: Dose normalized AUC in rat at 2.5 mg/kg, iv; format: ADME, organism-based; design: dose 2.5 mg/kg, route intravenous; settings: in vivo
# [35] = Half life in rat at 2.5 mg/kg, iv; format: ADME, organism-based; design: dose 2.5 mg/kg, route intravenous; settings: in vivo
# [36] = Clearance in rat at 2.5 mg/kg, iv; format: ADME, organism-based; design: dose 2.5 mg/kg, route intravenous; settings: in vivo
# [37] = Oral bioavailability in rat at 2.5 mg/kg; format: ADME, organism-based; settings: in vivo
compound,measurement,setting,value
C[C@H](NC(=O)c1ccc(N2C3CCC2CC(NC(=O)c2ccc(C(N)=O)c(NCC4CC4)c2)C3)nc1)c1ccc(N2CCN(C)CC2)cc1 (stereo partly specified),Papp,[1],0.15 ×10⁻⁶ cm/s
same,clearance,[2],157 mL/min/kg
same,IC50,Heat shock protein HSP90 [3],80 nM
same,IC50,Heat shock protein HSP90 [4],42 nM
CO[C@H]1/C=C\C=C(/C)C(=O)NC2=CC(=O)C(NCCN(C)C)=C(C[C@@H](C)C[C@H](OC)[C@H](O)[C@@H](C)/C=C(\C)[C@@H]1OC(N)=O)C2=O [ALVESPIMYCIN],inhibition in vivo at 100 mg/kg,Mus musculus [5],84%
same,inhibition,Mus musculus [6],inactive
COc1cccc(C(=O)NC2CC3CCC(C2)N3c2ccc(C(=O)N[C@@H](C)c3ccc(N4CCN(C)CC4)cc3)cn2)c1C (stereo partly specified),"metabolised at 0.5 h, 15 µM",[7],37%
same,Papp,[1],6.3 ×10⁻⁶ cm/s
same,bioavailability,[8],30%
same,half-life,[9],6.4 h
same,clearance,[2],34.3 mL/min/kg
same,IC50,Heat shock protein HSP90 [3],200 nM
same,IC50,Heat shock protein HSP90 [4],374 nM
same,solubility kinetic,[10],447 µM
same,AUC/dose,Rattus norvegicus [11],0.71 µM·kg·h/mg
CC[C@@H](C)Nc1cc(C(=O)NC2CC3CCC(C2)N3c2ccc(C(=O)C3CC3)cn2)c(C)cc1C(N)=O (stereo partly specified),half-life,[12],1.4 h
same,concentration at 24 h,[13],2860 nM
same,inhibition in vivo at 60 mg/kg,NCI-N87 [14],100%
same,concentration at 96 h,[15],1820 nM
same,Papp,[1],32 ×10⁻⁶ cm/s
same,inhibition in vivo at 100 mg/kg,Mus musculus [16],234%
same,inhibition in vivo at 100 mg/kg,NCI-N87 [17],> 100%
same,inhibition in vivo at 100 mg/kg,Mus musculus [18],92%
same,IC50,COLO 205,11.6 nM
same,inhibition in vivo at 100 mg/kg,Mus musculus [19],56%
same,IC50,HN5,5.5 nM
same,IC50,SK-MEL-28,0.3 nM
same,concentration at 8 h,[20],2260 nM
same,inhibition in vivo at 100 mg/kg,Mus musculus [21],343%
same,Cp,Plasma,BLD
same,concentration at 8 h,[22],5390 nM
same,IC50,MCF7,4.1 nM
same,inhibition,Mus musculus [23],inactive
same,IC50,BT-474,0.1 nM
same,IC50,NCI-H1975,0.7 nM
same,concentration at 24 h,[24],70 nM
same,AUC/dose,Rattus norvegicus [25],2.23 µM·kg·h/mg
same,inhibition in vivo at 100 mg/kg,Mus musculus [26],75%
same,IC50,Heat shock protein HSP90 [27],56 nM
same,IC50,A549,4.3 nM
same,IC50,NCI-N87 [28],21.8 nM
same,IC50,MKN-45,45.5 nM
same,bioavailability,[29],30%
same,clearance,[30],15.3 mL/min/kg
same,Activity,NCI-N87 [31],21%
same,IC50,MDA-MB-453,16 nM
COc1cccc(C(=O)NC2CC3CCC(C2)N3c2ccc(C(=O)NCc3ccc(N4CCN(C)CC4)cc3)cn2)c1C (stereo unspecified),"metabolised at 0.5 h, 15 µM",[7],28%
same,Papp,[1],7.4 ×10⁻⁶ cm/s
same,bioavailability,[8],28%
same,half-life,[9],6.5 h
same,clearance,[2],112 mL/min/kg
same,IC50,Heat shock protein HSP90 [3],108 nM
same,IC50,Heat shock protein HSP90 [4],579 nM
same,solubility kinetic,[10],285 µM
same,AUC/dose,Rattus norvegicus [11],0.23 µM·kg·h/mg
COc1cccc(C(=O)NC2CC3CCC(C2)N3c2ccc(C(N)=O)cn2)c1C (stereo unspecified),half-life,[12],2.1 h
same,"metabolised at 0.5 h, 15 µM",[7],21%
same,Papp,[1],13.3 ×10⁻⁶ cm/s
same,"metabolised at 0.5 h, 15 µM",[32],29%
same,concentration at 8 h,[33],6700 nM
same,IC50,Heat shock protein HSP90 [3],641 nM
same,IC50,Heat shock protein HSP90 [4],3800 nM
same,solubility kinetic,[10],470 µM
same,AUC/dose,Rattus norvegicus [25],6.3 µM·kg·h/mg
same,inhibition,Mus musculus [5],inactive
same,bioavailability,[29],81%
same,clearance,[30],6.15 mL/min/kg
same,inhibition in vivo at 100 mg/kg,Mus musculus [6],63%
COc1cccc(C(=O)NC2CC3CCC(C2)N3c2ccc(C(=O)NCc3ccccc3)cn2)c1C (stereo unspecified),"metabolised at 0.5 h, 15 µM",[7],64%
same,Papp,[1],50.5 ×10⁻⁶ cm/s
same,"metabolised at 0.5 h, 15 µM",[32],79%
same,AUC/dose,Rattus norvegicus [34],0.9 µM·kg·h/mg
same,solubility kinetic,[10],4.1 µM
same,half-life,[35],0.72 h
same,clearance,[36],38.1 mL/min/kg
same,bioavailability,[37],4%
